Laboratory results as given in publication PMC9150102 (Journal of Medicinal Chemistry, 2022).

Tests used:
[1] = Acute toxicity (LD50) in mice; conditions: male, Albino Swiss CD-1, mouse, in vivo
Method: Acute toxicity (LD50) was preliminarily evaluated in mice following i.v. and oral drug administration.
Control animals received the vehicle only.
Drug toxicity studies in mice
Acute toxicity was determined in CD1 mice. Separate mice groups were either orally treated, or
intravenously injected, with increasing doses of the tested substance to identify the dose causing 50%
mortality (LD50). Acute mortality was assessed at 30 min after compound administration; survival was

SERCA2a [2] = molecular target: T1, SERCA2a (Cavia porcellus, UniProt A0A286XFU8); assay: SERCA2a ATPase activity, Ca2+ dependency in cardiac SR microsomes from healthy guinea pigs; assay type: biochemical, guinea pig; conditions: for SERCA2a KdCa reduced by / SERCA2a Vmax: 1 nM
T1 construct: from tissue; host or cells: guinea pig left ventricle, SR-enriched microsomes
Method: SERCA2a ATPase activity was assessed in SR preparations from healthy guinea pig hearts. Ca^2+ dependency of ATPase activity was measured, and kinetic parameters (KdCa and Vmax) were estimated at compound concentrations of 10 and 100 nM.
[…] […] Data are the mean ± SEM. *p < 0.05 (one-way RM ANOVA plus post hoc Tukey’s multiple comparisons or paired t-test).
(§1) Measurements were performed in cardiac SR microsomes (guinea pig) and in whole tissue homogenates (rat). Cardiac preparations included SERCA2a and PLN. To test for PLN involvement in the effect of compounds, SERCA1 activity was measured in PLN-free microsomes (from guinea pig skeletal muscle) before and after reconstitution with the synthetic PLN1–32 inhibitory fragment at a ratio of 300:1 for PLN/SERCA. […] Either an increase in Vmax (rat) or a decrease in KdCa (increased Ca^2+ affinity) (guinea pig) stands for enhancement of SERCA function. […]
(§2) Left ventricles (LV) were dissected from rat and guinea -pig of healthy and failing preparations and frozen until use. Tissues were homogenized, subjected to centrifugation to obtain SR -enriched microsomes and sarcomeric proteins were extracted, as previously described 4.
(§3) In the case of guinea-pig hearts, LV tissues were homogenized in 4 volumes of 10 mM NaHCO3, 1 mM PMSF, 10 μg/ml aprotinin and leupeptin (pH 7) and centrifuged at 12,000g for 15 minutes. Supernatants were filtered and centrifuged at 100,000 g for 30 min. Contractile proteins were extracted by suspending the pellets with 0.6 M KCl, 30 mM histidine, pH 7 and further centrifugation at 100,000 g for 30 min.
(§4) Final pellets were reconstituted with 0.3 M sucrose, 30 mM histidine, pH 7, to obtain SR-enriched […]
(§5) SERCA2a ATPase activity was measured as the rate of 32P-ATP release at multiple Ca2+ concentrations (100-2000 nM) in the absence and presence of tested compounds, as previously described5. Increasing concentrations of each compound were pre-incubated with 2 μg of cardiac preparations for 5 min at 4° C in 80 μl of a solution containing 100 mM KCl, 5 mM MgCl2, 1 μM A23187, 20 mM Tris, pH 7.5. Then, 20 μl of 5 mM Tris-ATP containing 50 nCi of 32P-ATP (3-10 Ci/mmol, Perkin Elmer) were added. The ATP hydrolysis was continued for 15 min at 37°C and the reaction was stopped by acidification with 100 μl of 20% ice-cold perchloric acid. 32P was separated by centrifugation with activated charcoal (Norit A, Serva) and the radioactivity was measured. SERCA2a-dependent ATPase activity was identified as the portion of total hydrolytic activity inhibited by cyclopiazonic acid (CPA, 10 µM). Technical replicates were used to ensure the reliability of single values. […]

SERCA2a [3] = molecular target: T2, SERCA2a (Rattus norvegicus, UniProt P11507); assay: SERCA2a ATPase activity in cardiac homogenates from diabetic (STZ) rats; assay type: biochemical
T2 construct: tissues from healthy and STZ rats were homogenized; from tissue; host or cells: Sprague Dawley rat left ventricle homogenates (healthy or STZ-diabetic)
Method: Measurements were performed in cardiac SR microsomes (guinea pig) and in whole tissue homogenates (rat). Cardiac preparations included SERCA2a and PLN. To test for PLN involvement in the effect of compounds, SERCA1 activity was measured in PLN-free microsomes (from guinea pig skeletal muscle) before and after reconstitution with the synthetic PLN1–32 inhibitory fragment at a ratio of 300:1 for PLN/SERCA. […] Either an increase in Vmax (rat) or a decrease in KdCa (increased Ca^2+ affinity) (guinea pig) stands for enhancement of SERCA function.
(rats). As verified by Western blot, cardiac microsomes preparations included SERCA2a and PLN and skeletal muscle ones included SERCA1 only.
SERCA stimulation4, compounds were also tested on SERCA1 in microsomes of guinea-pig skeletal muscle (PLN-free) before and after reconstitution with the PLN1-32 inhibitory fragment at a ratio of 300:1 […]
as §2, §3, §4
(§6) In the case of rat hearts, cardiac homogenates were used to have sufficient material to replicate the experiments within a single animal. Hearts were excised from rats eight weeks after STZ injection. LV tissues from healthy and STZ rats were homogenized (1 g in 4 ml buffer) in a medium containing 300 mM sucrose, 50 mM K-phosphate, 10 mM NaF, 0.3 mM PMSF, 0.5 mM DTT, pH 7, and centrifuged at 35,000 g for 30 min. The final pellet was resuspended in the same buffer.
SERCA2a ATPase activity was measured as the rate of 32P-ATP release at multiple Ca2+ concentrations (100-2000 nM) in the absence and presence of tested compounds, as previously described5. Increasing concentrations of each compound were pre-incubated with 2 μg of cardiac preparations for 5 min at 4° C in 80 μl of a solution containing 100 mM KCl, 5 mM MgCl2, 1 μM A23187, 20 mM Tris, pH 7.5. Then, 20 μl of 5 mM Tris-ATP containing 50 nCi of 32P-ATP (3-10 Ci/mmol, Perkin Elmer) were added. […] 32P was separated by centrifugation with activated charcoal (Norit A, Serva) and the radioactivity was measured. […]

[4] = system: SR Ca^2+ uptake in STZ cardiomyocytes; assay: SR loading protocol (SR Ca2+ uptake under NCX inhibition) in patch-clamped STZ myocytes; assay type: cell-based, rat; conditions: 1 μM
SERCA2a [5] = molecular target: T2, SERCA2a; assay: SERCA2a ATPase activity in cardiac SR homogenates from healthy rats; assay type: biochemical
Method: as §1
Left ventricles (LV) were dissected from rat and guinea -pig of healthy and failing preparations and frozen until use. Tissues were homogenized, subjected to centrifugation to obtain SR -enriched microsomes and sarcomeric proteins were extracted, as previously described 4. […]
as §6, §5

[6] = system: Na^+/K^+ ATPase current (INaK); assay: Na+/K+ ATPase current (INaK) in isolated rat LV myocytes; assay type: cell-based; conditions: isolated rat cardiomyocytes

T2 sequence (P11507 1-997 isoform P11507-2): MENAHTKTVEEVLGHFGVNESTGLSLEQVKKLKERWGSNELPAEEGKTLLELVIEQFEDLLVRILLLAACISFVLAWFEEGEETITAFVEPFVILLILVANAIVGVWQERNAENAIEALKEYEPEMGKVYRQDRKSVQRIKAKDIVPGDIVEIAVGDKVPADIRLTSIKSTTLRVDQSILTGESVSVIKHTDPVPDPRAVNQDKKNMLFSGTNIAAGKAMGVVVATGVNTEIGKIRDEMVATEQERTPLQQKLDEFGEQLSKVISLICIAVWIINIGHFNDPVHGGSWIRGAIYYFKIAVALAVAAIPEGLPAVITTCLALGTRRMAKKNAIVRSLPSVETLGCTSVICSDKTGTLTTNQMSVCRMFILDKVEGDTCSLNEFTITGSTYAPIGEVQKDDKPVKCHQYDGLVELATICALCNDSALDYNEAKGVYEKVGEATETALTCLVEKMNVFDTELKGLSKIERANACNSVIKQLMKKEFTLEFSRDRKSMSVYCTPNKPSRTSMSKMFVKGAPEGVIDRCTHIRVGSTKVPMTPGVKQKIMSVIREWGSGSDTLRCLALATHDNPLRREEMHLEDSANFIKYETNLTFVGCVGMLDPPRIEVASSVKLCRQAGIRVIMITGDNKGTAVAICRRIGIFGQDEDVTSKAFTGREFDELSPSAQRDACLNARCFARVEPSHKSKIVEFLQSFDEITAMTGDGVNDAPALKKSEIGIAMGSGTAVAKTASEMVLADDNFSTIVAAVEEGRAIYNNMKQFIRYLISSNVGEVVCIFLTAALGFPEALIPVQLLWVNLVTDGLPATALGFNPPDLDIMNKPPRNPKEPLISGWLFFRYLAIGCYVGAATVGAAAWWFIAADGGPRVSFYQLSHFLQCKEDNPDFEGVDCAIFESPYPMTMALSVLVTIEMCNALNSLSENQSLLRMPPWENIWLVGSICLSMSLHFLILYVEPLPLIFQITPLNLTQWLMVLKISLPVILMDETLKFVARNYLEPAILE
T1 sequence (A0A286XFU8 entry or part of it): as the sequence (P11507 1-997 isoform P11507-2) above, with A219V, I392M, Q396H, V402I, A470V, P535L, S713A, I889V counted along it

SMILES	LD50 at 24 h ([1]; iv) [mg/kg]	LD50 at 24 h ([1]; po) [mg/kg]	SERCA2a KdCa reduced by (SERCA2a [2]) [%]	SERCA2a Vmax (SERCA2a [2])	SERCA2a Stimulation @100 nM (DELTA% KdCa) (SERCA2a [2]; 100 nM) [%]	SERCA2a Vmax increase (SERCA2a [3]; 300 nM)	SERCA2a Vmax increase (SERCA2a [3]; 500 nM)	Ca2+ transient (CaT) decay time constant [4]	CaT amplitude [4]	excitation release (ER) gain [4]	SERCA2a KdCa (SERCA2a [5]; Cpd 100 nM) [nM]	SERCA2a Vmax (µmol/min/mg) (SERCA2a [5]; Cpd 100 nM)	SERCA2a KdCa (SERCA2a [5]; Cpd 300 nM) [nM]	SERCA2a Vmax (µmol/min/mg) (SERCA2a [5]; Cpd 300 nM)	SERCA2a KdCa (SERCA2a [5]; Cpd 500 nM) [nM]	SERCA2a Vmax (µmol/min/mg) (SERCA2a [5]; Cpd 500 nM)	SERCA2a KdCa (SERCA2a [5]; Cpd 1000 nM) [nM]	SERCA2a Vmax (µmol/min/mg) (SERCA2a [5]; Cpd 1000 nM)	concentration above which INaK inhibition is detectable [6]
C[C@]12CC[C@H](CCCC(=O)O)C[C@@H]1[C@@H](O)C[C@@H]1[C@@H]2CC[C@]2(C)C(=O)CC[C@@H]12 [Compound 5]	300	> 800	16	without affecting Vmax	-21	+26%	+25%	sharply accelerated Ca^2+ transient (CaT) decay	not significantly affected	increased excitation release (ER) gain	221 ± 24	0,371 ± 0,021 µmol/min/mg	221 ± 21	0,384 ± 0,023 µmol/min/mg	220 ± 24	0,374 ± 0,031 µmol/min/mg	219 ± 32	0,377 ± 0,029 µmol/min/mg	higher than 20 μM
C[C@]12CC[C@H](CC(=O)O)C[C@@H]1[C@@H](O)C[C@@H]1[C@@H]2CC[C@]2(C)C(=O)CC[C@@H]12 [Compound 8]			14	without affecting Vmax		+17%	+28%				214 ± 17	0,344 ± 0,038 µmol/min/mg	210 ± 13	0,366 ± 0,027 µmol/min/mg	260 ± 35	0,313 ± 0,028 µmol/min/mg	273 ± 32	0,320 ± 0,020 µmol/min/mg	
